Publication PMC9764071 (Acta Pharmaceutica Sinica. B, 2022)

Columns and labels:
[1] = biological target: PD-1/PD-L1 interaction (Homo sapiens, UniProt Q9NZQ7); assay: TR-FRET assay of PD-1/PD-L1 interaction inhibition; assay type: binding
[2] = tested on: A375 cells; assay: Cytotoxicity evaluation by Real-Time Cell Analyzing; assay type: cell-based; settings: 20 μmol/L of compound; RTCA; versus control group
[3] = tested on: Lewis lung carcinoma (LLC) cells overexpressing hPD-L1 (LLC-hPD-L1); assay: In vivo antitumor activity on Balb/c-nude mice; settings: P39 4, 10 and 25 mg/kg
[4] = tested on: H460 cells; assay: PBMCs-mediated tumor cell-killing assay; assay type: cell-based, human; settings: P39 100 or 200 nmol/L, 24 h
[5] = tested on: Lewis lung carcinoma (LLC) cells overexpressing hPD-L1 (LLC-hPD-L1); assay: In vivo antitumor activity, humanized LLC-hPD-L1 mouse model; parameters: species or system hPD-1-knockin C57BL/6 mice
[6] = tested on: MC38 tumor cells; assay: In vivo antitumor activity, MC38 mouse model; parameters: species or system C57BL/6 mice
[7] = tested on: T cells in TILs; assay: Flow cytometry of tumor infiltrating lymphocytes, MC38 model; assay type: in vivo, C57BL/6 mice
[8] = tested on: PD-1/PD-L1 interaction, H358 cells; assay: PD-1/PD-L1 blockade bioassay; assay type: cell-based; settings: P39-treated H358 cells versus untreated cells; concentration-dependent
[9] = Acute toxicity test; assay type: in vivo, ICR mice
[10] = biological target: PD-1/PD-L1 interaction on H460 cells (Homo sapiens, UniProt Q9NZQ7); assay type: cell-based
[11] = tested on: CD8, IFN-γ and GzmB expression; assay: Immunohistochemistry; assay type: in vivo, mice; settings: IHC of tumor tissues; Fig. S8
[12] = biological target: PD-1/PD-L1 interaction on MDA-MB-231 cells (Homo sapiens, UniProt Q9NZQ7); assay type: cell-based; settings: P39 0–200 nmol/L, 24 h; immunostaining
Chain of PD-1/PD-L1 interaction on MDA-MB-231 cells (Q9NZQ7 19-290): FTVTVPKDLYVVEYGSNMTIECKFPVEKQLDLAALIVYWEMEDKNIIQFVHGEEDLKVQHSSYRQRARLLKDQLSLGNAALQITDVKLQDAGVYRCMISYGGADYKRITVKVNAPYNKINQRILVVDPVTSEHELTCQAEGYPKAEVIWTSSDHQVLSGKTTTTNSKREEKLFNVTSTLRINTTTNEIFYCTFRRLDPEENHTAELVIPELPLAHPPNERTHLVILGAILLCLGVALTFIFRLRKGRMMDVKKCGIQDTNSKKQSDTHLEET

Chain of PD-1/PD-L1 interaction (Q9NZQ7 19-238 limits assumed): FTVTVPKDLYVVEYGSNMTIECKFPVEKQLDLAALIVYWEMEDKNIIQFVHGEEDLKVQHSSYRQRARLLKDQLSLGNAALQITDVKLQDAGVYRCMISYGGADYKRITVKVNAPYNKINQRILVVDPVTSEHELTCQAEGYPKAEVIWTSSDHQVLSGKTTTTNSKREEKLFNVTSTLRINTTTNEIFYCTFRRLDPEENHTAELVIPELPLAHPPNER
Chain of PD-1/PD-L1 interaction on H460 cells (Q9NZQ7 19-290): as the sequence (Q9NZQ7 19-290) above

| IC50 [1] [nM] | SMILES | other results |
| --- | --- | --- |
| 395 | Cc1c(-c2ccccc2)cccc1N1C(=O)c2cc(CNCCNC(=O)OC(C)(C)C)c(OCc3cccc(C#N)c3)cc2C1=O [P20] | – |
| 216 | Cc1c(-c2ccccc2)cccc1N1C(=O)c2cc(CN3CC[C@@H](O)C3)c(OCc3cccc(C#N)c3)cc2C1=O [P23] | – |
| 836 | COC(=O)CNCc1cc2c(cc1OCc1cccc(C#N)c1)C(=O)N(c1cccc(-c3ccccc3)c1C)C2=O [P31] | – |
| 13.3 | Cc1c(-c2ccccc2)cccc1N1C(=O)c2cc(CNCC(=O)O)c(OCc3cccc(C#N)c3)cc2C1=O [P33] | cytotoxicity, real-time growth of A375 cells [2]: essentially non-toxic to A375 cells |
| 4380 | Cc1c(-c2ccccc2)cccc1N1C(=O)c2ccc(OCc3cccc(C#N)c3)c(CN3CCC[C@H]3C(=O)O)c2C1=O [P10] | – |
| > 10000 | Cc1c(-c2ccccc2)cccc1N1C(=O)c2cc(CN(C)CC(=O)OC(C)(C)C)c(OCc3cccc(C#N)c3)cc2C1=O [P34] | – |
| 117 | Cc1c(-c2ccccc2)cccc1N1C(=O)c2cc(CN3CCCC[C@H]3C(=O)O)c(OCc3cccc(C#N)c3)cc2C1=O [P11] | – |
| 42.4 | Cc1c(-c2ccccc2)cccc1N1C(=O)c2cc(CN3CC(C(=O)O)C3)c(OCc3cccc(C#N)c3)cc2C1=O [P27] | – |
| 171 | Cc1c(-c2ccccc2)cccc1N1C(=O)c2cc(CNCCO)c(OCc3ccccc3C#N)cc2C1=O [P3] | cytotoxicity, real-time growth of A375 cells [2]: essentially non-toxic to A375 cells |
| 79.1 | CC(=O)NCCNCc1cc2c(cc1OCc1cccc(C#N)c1)C(=O)N(c1cccc(-c3ccccc3)c1C)C2=O [P18] | – |
| 921 | Cc1c(-c2ccccc2)cccc1N1C(=O)c2cc(CNCCO)c(OCc3ccc(C(C)C)cc3)cc2C1=O [P6] | – |
| 564 | Cc1c(-c2ccccc2)cccc1N1C(=O)c2cc(CN3CCC[C@H]3C(N)=O)c(OCc3cccc(C#N)c3)cc2C1=O [P26] | – |
| 39.3 | N#Cc1cccc(COc2cc3c(cc2CNC2CCOCC2)C(=O)N(c2cccc(-c4ccccc4)c2Cl)C3=O)c1 [P13] | – |
| 738 | Cc1c(-c2ccccc2)cccc1N1C(=O)c2cc(CN3CCOCC3)c(OCc3cccc(C#N)c3)cc2C1=O [P24] | – |
| 1160 | Cc1c(-c2ccccc2)cccc1N1C(=O)c2cc(CNCC(=O)OC(C)(C)C)c(OCc3cccc(C#N)c3)cc2C1=O [P32] | – |
| 31.6 | N#Cc1cccc(COc2cc3c(cc2CN2CCC[C@H]2C(=O)O)C(=O)N(c2cccc(-c4ccccc4)c2F)C3=O)c1 [P16] | – |
| 58.7 | N#Cc1cccc(COc2cc3c(cc2CNC2CCOCC2)C(=O)N(c2cccc(-c4ccccc4)c2F)C3=O)c1 [P15] | cytotoxicity, real-time growth of A375 cells [2]: essentially non-toxic to A375 cells |
| 607 | Cc1c(-c2ccccc2)cccc1N1C(=O)c2cc(CN[C@@H](CO)C(=O)OC(C)(C)C)c(OCc3cccc(C#N)c3)cc2C1=O [P29] | – |
| 251 | Cc1c(-c2ccccc2)cccc1N1C(=O)c2cc(CN3CCC[C@H]3CO)c(OCc3cccc(C#N)c3)cc2C1=O [P22] | – |

| IC50 [1] [nM] | SMILES | other results |
| --- | --- | --- |
| 1140 | Cc1c(-c2ccccc2)cccc1N1C(=O)c2ccc(OCc3cccc(C#N)c3)c(CNC3CCOCC3)c2C1=O [P9] | – |
| 11.6 | Cc1c(-c2ccccc2)cccc1N1C(=O)c2cc(CN[C@@H](C)C(=O)O)c(OCc3cccc(C#N)c3)cc2C1=O [P37] | cytotoxicity, real-time growth of A375 cells [2]: essentially non-toxic to A375 cells |
| 527 | Cc1c(-c2ccccc2)cccc1N1C(=O)c2cc(CN[C@@H](Cc3ccccc3)C(=O)O)c(OCc3cccc(C#N)c3)cc2C1=O [P41] | – |
| 189 | Cc1c(-c2ccccc2)cccc1N1C(=O)c2cc(CNCCN(C)C)c(OCc3cccc(C#N)c3)cc2C1=O [P21] | – |
| 14 | Cc1c(-c2ccccc2)cccc1N1C(=O)c2cc(CN[C@@H](CO)C(=O)O)c(OCc3cccc(C#N)c3)cc2C1=O [P30] | cytotoxicity, real-time growth of A375 cells [2]: essentially non-toxic to A375 cells |
| 22.1 | N#Cc1cccc(COc2cc3c(cc2CN2CCC[C@H]2C(=O)O)C(=O)N(c2cccc(-c4ccccc4)c2Cl)C3=O)c1 [P14] | – |
| 45.6 | Cc1c(-c2ccccc2)cccc1N1C(=O)c2cc(CNC3CCOCC3)c(OCc3cccc(C#N)c3)cc2C1=O [P7] | – |
| 216 | Cc1c(-c2ccccc2)cccc1N1C(=O)c2cc(CNCCO)c(OCc3ccccc3)cc2C1=O [P5] | – |
| 150 | Cc1c(-c2ccccc2)cccc1N1C(=O)c2cc(CN(C)CCO)c(OCc3cccc(C#N)c3)cc2C1=O [P19] | – |
| 1690 | Cc1c(-c2ccccc2)cccc1N1C(=O)c2cc(CN[C@@H](Cc3ccccc3)C(=O)OC(C)(C)C)c(OCc3cccc(C#N)c3)cc2C1=O [P40] | – |
| 1670 | Cc1c(-c2ccccc2)cccc1N1C(=O)c2cc(CN[C@@H](C)C(=O)OC(C)(C)C)c(OCc3cccc(C#N)c3)cc2C1=O [P36] | – |
| 45.4 | Cc1c(-c2ccccc2)cccc1N1C(=O)c2cc(CNCCO)c(OCc3cccc(C#N)c3)cc2C1=O [P1] | cytotoxicity, real-time growth of A375 cells [2]: essentially non-toxic to A375 cells |
| 46.6 | Cc1c(-c2ccccc2)cccc1N1C(=O)c2cc(CN(C)CC(=O)O)c(OCc3cccc(C#N)c3)cc2C1=O [P35] | – |
| > 10000 | Cc1c(-c2ccccc2)cccc1N1C(=O)c2cc(CN[C@H](C(=O)OC(C)(C)C)C(C)O)c(OCc3cccc(C#N)c3)cc2C1=O (some centres unmarked) [P38] | – |
| 52.1 | Cc1c(-c2ccccc2)cccc1N1C(=O)c2cc(CN3CCC[C@H]3C(=O)O)c(OCc3cccc(C#N)c3)cc2C1=O [P8] | cytotoxicity, real-time growth of A375 cells [2]: essentially non-toxic to A375 cells |
| 153 | Cc1c(-c2ccccc2)cccc1N1C(=O)c2cc(CNCCO)c(OCc3ccc(C#N)cc3)cc2C1=O [P4] | cytotoxicity, real-time growth of A375 cells [2]: essentially non-toxic to A375 cells |
| 187 | Cc1c(-c2ccccc2)cccc1N1C(=O)c2cc(CN3CC(O)C3)c(OCc3cccc(C#N)c3)cc2C1=O [P25] | – |
| 100 | N#Cc1cccc(COc2cc3c(cc2CN2CCCC[C@H]2C(=O)O)C(=O)N(c2cccc(-c4ccccc4)c2C#N)C3=O)c1 [P12] | – |

| SMILES | IC50 [1] [nM] | other results |
| --- | --- | --- |
| Cc1c(-c2ccccc2)cccc1N1C(=O)c2cc(CN[C@H](C(=O)O)C(C)O)c(OCc3cccc(C#N)c3)cc2C1=O (some centres unmarked) [P39] | 8.9 | cytotoxicity, real-time growth of A375 cells [2]: essentially non-toxic to A375 cells; ability to clear tumor cells in immunodeficient mice [3]: no ability to clear tumor cells; sensitivity of tumor cells to T cell killing (activated human PBMCs) [4]: greatly increased; tumor inhibitory effect compared with BMS202 (10 mg/kg) ([5]; P39 25 mg/kg): much better activity; tumor inhibition rate ([5]; high dose, 25 mg/kg, 12 days of administration): 79.0%; inhibition rate of tumor growth ([5]; low dose, 10 mg/kg): 66.2%; tumor volume growth inhibition ([6]; 10 mg/kg i.p. once daily, 4 weeks): 54.9%; tumor volume growth inhibition ([6]; 25 mg/kg i.p. once daily, 4 weeks): 68.3%; final tumor weight ([6]; 10 and 25 mg/kg groups versus control group): significantly decreased; weight loss or death of mice during treatment ([6]; 10 and 25 mg/kg i.p. once daily, 4 weeks): No weight loss or death of mice; population of CD4+ T cells in the tumor tissue ([7]; P39-treated mice versus control group, Fig. S6C): did not change compared to the control group; ratio of CD8+ to CD3+ T cells in the tumor ([7]; P39-treated mice, Fig. S6B and 6E): greatly increased; transcriptional-mediated bioluminescent signal [8]: significant increase; LD50 at 14 days ([9]; ICR, mouse, in vivo, po): > 5000 mg/kg; mortality and body weight loss ([9]; oral single dose 5000 mg/kg, observed two weeks): no mortality and obvious body weight loss; inhibitory activity on PD-1 binding to tumor cells compared to BMS202 ([10]; 200 nmol/L, Fig. 4A and B): stronger inhibitory activity compared to the positive compound BMS202; binding capacity of PD-1 to H460 cells ([10]; P39 0–200 nmol/L, 24 h, flow cytometry and immunostaining): significantly decreased in a dose-dependent manner; expression of CD8, IFN-γ, and GzmB [11]: increased expression; binding capacity of PD-1 to MDA-MB-231 cells [12]: significantly decreased in a dose-dependent manner |
